Entries after “also recorded” stand apart in the source; their conditions may differ. Like-named read-outs stand apart in the source and are kept apart here.
How the values were obtained:
[1] = test system: full-thickness skin layer wounds of diabetic mice; assay: Effect of Beraprost on Wound Healing in full-thickness skin wound model of diabetic mice; type: in vivo, hereditary diabetic mice (C57BL/KsJ-dbm (db+/db+))
Description: Effect of Beraprost on Wound Healing in Full Sickness Wound Model of Diabetic Mice Whose Full-Thickness Skin Layer was Ablated
Hair on the backs of hereditary diabetic mice (C57BL/KsJ-dbm (db+/db+), male, 11 to 12 weeks of age, 6 mice per group) was removed one day before a test. The back portions of the mice were cleaned with ethanol under ether anesthesia, and circular full-thickness skin layer wounds (2 cm^2) were formed in the middle portions of the backs with surgical curved scissors.
Beraprost (sodium salt) as a test medicament was prepared in the form of a saline solution containing 20 % ethanol, and the saline solution was dropwise administered at a dosage of 5 μg/10 μl/cm^2 ×14 times (once per day for 14 days). As control, a solution (vehicle) containing no medicament was administered.
For evaluating the effects of the test medicament, the wound surfaces were traced on plastic sheets at intervals of 2-3 days, and measured for wound areas with a planimeter. The ratios of the wound areas to the area immediately after the skin ablation were calculated, and the numbers of days required for the visual completion of epidermization (complete healing) from the skin-removed wounds were used as indices.
Further, the degrees of the vascularization and granulation of wound surfaces were visually scored, and changes with the passage of days and side effects were observed.
Further, an exudate was collected 9 days after the skin ablation, and a mixture of the exudate with a saline solution used for washing the wound was measured for a leucocyte number through a microscope.
Further, the mice were sacrificed by ether anesthesia on 31th day, and skins of the wound portions were cut off and fixed with a 10% neutral buffer formalin solution. Then, paraffin sections, Hematoxyrin-Eosin-stained specimens and Masson trichrome-stained specimens were prepared according to conventional methods and observed through a microscope.

Chemical stability = type: physicochemical; details: beraprost or a salt thereof, powder
Solubility in water = type: physicochemical; details: beraprost or a salt thereof, powder
[2] = test system: Experimental Hemorrhoids Model in Rats; assay: Therapy effects on experimental hemorrhoids model in rats (croton oil); type: in vivo, Male SLC: Wistar rats; details: for Wet weight of anus-rectum: twice a day for 4 days, average ± standard error, * P < 0.05 vs control
Description: (§1) Prevention and Therapy Effects on Experimental Hemorrhoids Model in Rats
(§2) A mixture of 1 volume of distilled water, 4 volumes of pyridine, 5 volumes of ethyl ether and 10 volumes of a 3% croton oil ethyl ether solution was used. The distilled water and a small amount of ethyl ether were added to, and blended with, the pyridine, and the 3% croton oil ethyl ether solution was added. Further, the remaining ethyl ether was added, and the mixture was vigorously stirred to prepare an inflammation-inducing agent containing croton oil. This solution was prepared just before the test, and stored with ice cooling during the test.
(§3) Beraprost (sodium salt) was dissolved in distilled water to prepare a solution for oral administration and dissolved in a saline solution to prepare a solution for intrarectal administration.
(§4) In the test of effects on the prevention of hemorrhoids, the dosage for oral administration was 0.1, 0.3 or 1.0 mg/kg, and the dosage for intrarectal administration was 0.01, 0.03, 0.1, 0.3 or 1.0 mg/kg. In the tests of effects on the therapy of hemorrhoids, the dosage for oral administration was 0.1 mg/kg, and the dosage for intrarectal administration was 0.03 mg/kg. Further, the dosage of the solution for oral administration was 10 ml/kg, and the dosage of the solution for intrarectal administration was 100 μl/kg.
(§5) Seven to 8 rats were used as one group.
In the test of effects on the therapy of hemorrhoids, inflammation was induced with an inflammation-inducing agent containing croton oil in the same manner as in the test of effects on the prevention. Beraprost was administered twice a day in the morning and evening for 4 days, and the administration was started one day after the induction of inflammation. Rectum-anus portions isolated after 5 days in the same manner as in the test of effects on prevention were measured for a weight.
(§6) In addition, distilled water alone was administered to the control group for oral administration, and a saline solution (vehicle) alone was administered to the control group for intrarectal administration. Further, for comparison, a non-treated group which was neither treated with the inflammation-inducing agent containing croton oil and nor treated with a medicament and which was neither administered with distilled water nor administered with a saline solution was tested in the same manner.
(§7) For the effect of beraprost on the weight of the rectum-anus portion, the difference from the control group was determined according to Student's t test, and for the histological data, the difference from the control group was determined according to Kruskal-Wallis H test. Further, the inhibition ratio was calculated on the basis of the rectum-anus portion average weight of each group by the following equation.
(§8) Inhibition ratio (%)={1-[medicament-administered group-non-treated
(§9) group)/(control group-non-treated group)]}×100

[3] = background statement; cited from earlier work
[4] = test system: Experimental Hemorrhoids Model in Rats; assay: Prevention effects on experimental hemorrhoids model in rats (croton oil); type: in vivo, Male SLC: Wistar rats; set-up: Mucosa Bleeding, Necrosis, Peeling (total length from anus transition portion) / Mucosa Red thrombus (number of thrombus) / Mucosa Epithelium Activation, number of rats / Mucosa Congestion, number of rats / Submucosa Swelling, number of rats / Submucosa Inflammatory cell infiltration, number of rats: dose or concentration left out as unconfirmed; details: for Submucosa Inflammatory cell infiltration, number of rats / Mucosa Congestion, number of rats / Mucosa Epithelium Activation, number of rats / Submucosa Swelling, number of rats: 8 rats
Description: as §1, §2, §3, §4, §5
In the test of prevention of hemorrhoids, beraprost was orally or intrarectally administered, and 30 minutes after the administration, 100 μl of the inflammation-inducing agent containing croton oil was infiltrated into the tampon of a swab and the tampon was inserted into the anus of each rat under no anesthesia for 10 seconds to induce inflammation.
Three hours after the induction of inflammation, the rats were sacrificed by bleeding under anesthesia with ethyl ether, and a rectum-anus portion was taken from each rat such that it was exactly 20 mm long from a circular hairline on the anus epithelium, and measured for a weight.
Further, in the intrarectally administered group, the isolated rectum-anus portion was fixed with a 10% neutral buffer formalin solution, and paraffin sections, Hematoxyrin-Eosin-stained specimens and Phosphotungstic acid hematoxyin-stained specimens were prepared according to conventional methods. Then, these were observed and their photographs were taken through an optical microscope The histological data obtained by the intrarectal administration of beraprost were examined.
as §6, §7, §8, §9

[5] = 9 days after the administration, as compared with vehicle
[6] = 9 days after the administration, mean ± S.E., ** P < 0.01 vs vehicle
[7] = score + (Low degree), 31 days after the skin ablation
[8] = score + (Low degree), 31 days after the skin ablation, distribution * P < 0.05 (H test)
[9] = score ++ (Intermediate degree), 31 days after the skin ablation
[10] = score +++ (High degree), 31 days after the skin ablation
[11] = score - (Not affected), 31 days after the skin ablation
[12] = intrarectal 0.03 mg/kg, on average, P<0.01
[13] = intrarectal, average ± standard error, ** P < 0.01
[14] = score + (Low degree), intrarectal, distribution XX P < 0.01
[15] = score ++ (Intermediate degree), intrarectal

CC#CCC(C)[C@H](O)/C=C/[C@@H]1[C@H]2c3cccc(CCCC(=O)O)c3O[C@H]2C[C@H]1O (relative stereo) [Beraprost, (±)-(1R*, 2R*,3aS*,8bS*)-2,3,3a,8b-tetrahydro-2-hydroxy-1-[(E)-(3S*)-3-hydroxy-4-methyl-1-octen-6-ynyl]-1H-cyclopenta[b]benzofuran-5-butyric acid]
change ratio of wound area ([1]; 3 days after administration, 5 μg/10 μl/cm^2 once per day for 14 days, mean ± S.E.): 95.7 ± 2.50% | amount of exudate (in words) [1, 5]: clear increase | number of infiltrated leucocyte (in words) [1, 5]: clear increase | Amount of exudate [1, 6]: 36.6 ± 10.73 µL | Number of infiltrated leucocyte [1, 6]: 110.1 ± 31.66 × 10^4 cells/site | change ratio of wound area ([1]; 10 days after administration, mean ± S.E., ** P < 0.01 vs vehicle): 24.4% | change ratio of wound area ([1]; 21 days after administration, mean ± S.E., * P < 0.05 vs vehicle): 0.1% | histology of skin ablation portions (in words) ([1]; 31 days after the skin ablation): the whole areas were covered with regenerated skin and the exudate of the dermis disappeared; also recorded: the tissue showed transition to fibrosis, no formation of abnormal tissue or no scar of excess formation was shown, and normal wound healing was shown | completion of healing first observed ([1]; day after administration): from the twenty-first day after administration | wound surfaces (decrease, in words) ([1]; from the sixth day after administration, as compared with vehicle): remarkable decreases | Days until complete healing ([1]; mean ± S.E., ** P < 0.01 vs vehicle): 22 days | systemic side effects ([1]; mouse, in vivo): no systemic side effects | weight difference from vehicle-administered group ([1]; mouse, in vivo): no weight difference was observed | Dermis, Subcutaneous tissue Exudate, number of cases [1, 7]: 1 cases in six mice | Epidermis Hypertrophy, number of cases [1, 7]: 1 cases in six mice | Epidermis Regeneration, number of cases [1, 7]: 0 cases in six mice | Dermis, Subcutaneous tissue Fibrosis, number of cases [1, 8]: 0 cases in six mice | Dermis, Subcutaneous tissue Granulation, number of cases [1, 8]: 2 cases in six mice | Dermis, Subcutaneous tissue Fibrosis, number of cases [1, 9]: 2 cases in six mice | Dermis, Subcutaneous tissue Granulation, number of cases [1, 9]: 0 cases in six mice | Epidermis Regeneration, number of cases ([1]; score ++ (Intermediate degree), 31 days after the skin ablation, distribution * P < 0.05 (H test)): 0 cases in six mice | Dermis, Subcutaneous tissue Fibrosis, number of cases [1, 10]: 4 cases in six mice | Epidermis Regeneration, number of cases [1, 10]: 6 cases in six mice | Dermis, Subcutaneous tissue Fibrosis, number of cases [1, 11]: 0 cases in six mice | Dermis, Subcutaneous tissue Granulation, number of cases [1, 11]: 4 cases in six mice | Epidermis Regeneration, number of cases [1, 11]: 0 cases in six mice | Dermis, Subcutaneous tissue Exudate, number of cases ([1]; score - (Not affected), 31 days after the skin ablation, distribution * P < 0.05 (H test)): 5 cases in six mice | vascularization and granulation on the wound surfaces ([1]; visual, as compared with vehicle-administered group): clear expeditious progress in the vascularization and granulation | chemical stability (Chemical stability): chemically stable | solubility in water (Solubility in water): soluble in water | Inhibition ratio ([2]; i.r. 0.03 mg/kg): 31.4% | Wet weight of anus-rectum ([2]; i.r. 0.03 mg/kg): 368.5 ± 27.35 mg | activity for inhibiting the swelling (in words) ([2]; oral 0.1 mg/kg and intrarectal 0.03 mg/kg, P<0.05): significant (P<0.05) activity for inhibiting the swelling | Inhibition ratio ([2]; p.o. 0.1 mg/kg): 27.1% | Wet weight of anus-rectum ([2]; p.o. 0.1 mg/kg): 380.7 ± 23.74 mg | chemical stability [3]: chemically stable | dosage group with the largest effect ([4]; intrarectal): 0.03 mg/kg | Inhibition ratio ([4]; intrarectal 0.01 mg/kg): 22.9% | Wet weight of anus-rectum ([4]; intrarectal 0.01 mg/kg, average ± standard error, ** P < 0.01 vs control): 303.3 ± 6.25 mg | Inhibition ratio ([4]; intrarectal 0.03 mg/kg): 35.8% | histology of rectum (in words) ([4]; intrarectal 0.03 mg/kg): the degrees of swelling and inflammatory cell infiltration lowered; also recorded: the mucosal epithelial cell nucleus was more densely stained than in a normal portion, and cells which appeared to be in an active state were distinctly observed; also recorded: the degree of congestion was lowered | Wet weight of anus-rectum ([4]; intrarectal 0.03 mg/kg, average ± standard error, ** P < 0.01 vs control): 277.3 ± 12.88 mg | number of blood vessels having red thrombus [4, 12]: 6.8±2.35 | range of bleeding, necrosis and peeling of mucosal layer [4, 12]: 5.4±0.19 mm | Inhibition ratio ([4]; intrarectal 0.1 mg/kg): 30.1% | Wet weight of anus-rectum ([4]; intrarectal 0.1 mg/kg, average ± standard error, ** P < 0.01 vs control): 288.7 ± 5.63 mg | Inhibition ratio ([4]; intrarectal 0.3 mg/kg): 24.6% | Wet weight of anus-rectum ([4]; intrarectal 0.3 mg/kg, average ± standard error, ** P < 0.01 vs control): 299.7 ± 9.74 mg | Inhibition ratio ([4]; intrarectal 1.0 mg/kg): 20.5% | Wet weight of anus-rectum ([4]; intrarectal 1.0 mg/kg, average ± standard error, * P < 0.05 vs control): 308.0 ± 14.51 mg | inhibition of rectum-anus weight increase (in words) ([4]; intrarectal 0.01 to 1.0 mg/kg, P<0.05 to 0.01): significant inhibition activity | Mucosa Bleeding, Necrosis, Peeling (total length from anus transition portion) [4, 13]: 5.4 ± 0.19 mm | Mucosa Red thrombus (number of thrombus) [4, 13]: 6.8 ± 2.35 | Inhibition ratio ([4]; oral 0.1 mg/kg): 24.5% | Wet weight of anus-rectum ([4]; oral 0.1 mg/kg, average ± standard error, ** P < 0.01 vs control): 307.1 ± 5.87 mg | Inhibition ratio ([4]; oral 0.3 mg/kg): 32.3% | Wet weight of anus-rectum ([4]; oral 0.3 mg/kg, average ± standard error, ** P < 0.01 vs control): 292.5 ± 11.28 mg | Inhibition ratio ([4]; oral 1.0 mg/kg): 39.3% | Wet weight of anus-rectum ([4]; oral 1.0 mg/kg, average ± standard error, ** P < 0.01 vs control): 279.3 ± 8.32 mg | swelling inhibition activity (in words) ([4]; oral 0.1 to 1.0 mg/kg, depending upon the dosage): clear swelling inhibition activity depending upon the dosage | swelling in rectum-anus portion and histopathological data (overall, in words) ([4]; orally and intrarectally administered): clearly inhibits the swelling; also recorded: remarkable effects in histopathological data | Submucosa Inflammatory cell infiltration, number of rats ([4]; score + (Low degree), intrarectal, distribution X P < 0.05): 5 | Mucosa Congestion, number of rats [4, 14]: 8 | Mucosa Epithelium Activation, number of rats [4, 14]: 2 | Mucosa Congestion, number of rats [4, 15]: 0 | Mucosa Epithelium Activation, number of rats [4, 15]: 6 | Submucosa Inflammatory cell infiltration, number of rats [4, 15]: 3 | Submucosa Swelling, number of rats ([4]; score ++ (Intermediate degree), intrarectal, distribution XX P < 0.01): 8 | Submucosa Swelling, number of rats ([4]; score +++ (High degree), intrarectal): 0 | Mucosa Epithelium Activation, number of rats ([4]; score - (No change), intrarectal): 0
